Marks after values point to notes of the source that are not given here. No end group written: not given here.
B1: βpep-5 (peptide)
peptide: KFIVTLRVIKAGPHSPTAQIIVELKNGRKLSLD-NH2
modifications: not fully specified
notes: It is entered as the monomer chain
B2: βpep-8 (peptide)
peptide: ANIKLSVEMKLFKRHLKWKIIVKLNDGRELSLD-NH2
modifications: not fully specified
notes: Synthetic 33-mer designed de novo; It is entered as the monomer chain
B3: βpep-1 (peptide)
peptide: SIQDLNVSMKLFRKQAKWKIIVKLNDGRELSLD-NH2
modifications: not fully specified
notes: as for B2
B4: βpep-4 (peptide)
peptide: SIQDLNVSMKLFRKQAKWKINVKLNDGRELSLD-NH2
modifications: also: β-sheet sandwich tetramer
notes: as for B2

Key:
RAW 264.7 cells = experiment: LPS-induced secretion of TNF-α in vitro by RAW 264.7 cells; type: cell-based; conditions: 200 ng/ml E. coli 0111:B4 LPS preincubated with 10^−5 M peptide, 3 hours; compared to BG22, p=0.04
Description: […] RAW 264.7 cells were placed in each well of a 24-well culture plate and allowed to adhere. Immediately before LPS stimulation, medium was removed and cells were washed in serum-free Dulbecco's modified Eagle's medium (DMDM). Cells were incubated at 37° C. in a 10% CO2 atmosphere for 3 hours with: 1) DMEM alone, 2) E. coli 0111:B4 LPS alone, or 3) E. coli 0111:B4 LPS preincubated with BG22, βpep-3 or BG16. The concentration of LPS used in all groups was 200 ng/ml. To avoid non-specific inhibition of LPS-induced TNF-α secretion, 10^−5 M of each peptide was used in the experimental wells. At the end of the incubation period, macrophage supernatants were collected and assayed for TNF-α concentration.
TNF-α concentrations were measured as described by Battafarano et al. (supra). Briefly, the TNF-α sensitive cell line WEHI was used in all assays of either RAW cell supernatant (in vitro) or serum (in vivo animal model). Concentrations were extrapolated from a standard curve based oil dilutions of purified TNF-α (Genzyme, Cambridge, Mass.), and all samples were examined in triplicate. Viability of the WEHI cells was assessed by measuring the extent of cellular crystal violet uptake by spectrophotometry at 590 nm. In this assay, absorbance was inversely correlated with cell death and lysis resulting from exposure of WEHI cells to TNF-α. […]

P. aeruginosa = experiment: Bactericidal activity assay; type: cell-based, Pseudomonas aeruginosa type 1; conditions: 1.2 × 10^−7 M Peptide; 5 × 105 P. aeruginosa
Text: Bacteria: P. aeruginosa type 1 is a clinical isolate maintained in the laboratory. The isolate remains a smooth strain and was serotyped by the scheme of Homma. The Pseudomonas strain was maintained by monthly transfer on blood agar plates.
The peptides can be assayed for bactericidal activity against a variety of organisms such as Pseudomonas aeruginosa type 1, P. cepacia ATCC 25608, E. coli B, and Staphylococcus aureus 502A by standard methods.
Pseudomonas aeruginosa type 1 is a clinical isolate. The isolate remains a smooth strain and was serotyped by the scheme of Homma (Jpn. J. Exp. Med. 46:329, 1976). A rough strain, E. coli B and S. aureus 502A were obtained from Paul Quie, University of Minnesota (Minneapolis, Minn.). The characteristics of the S. aureus strain have been described by Shinefield et al. (Amer. J. Dis. Chil. 105:646, 1963). Pseudomonas cepacia ATCC 25608 can be purchased from the ATCC. S. aureus and E. coli were maintained on nutrient agar plates and the Pseudomonas strains were maintained on blood agar plates.
Pyrogen-free solutions were used throughout the assay and all methods that follow. Log phase bacteria were prepared from a culture in brain heart infusion broth (Hovde et al. Infect. Immun. 54:142–148, 1986) and bacteria were washed and resuspended in saline with adjustment to an optical density at 650 nm to provide a yield of about 3×10^8 CFU/ml. Bacteria were diluted 1:10 in 0.08M citrate phosphate buffer, pH 5.6 or pH 7.0, for use in the assay. S. aureus rapidly lost viability in the pH 5.6 buffer and was studied only at pH 7.0. Bactericidal activity was determined by dose response over peptide concentrations ranging from about […] to about 4.1×10^−9M. Bactericidal activity was determined by dose response, preferably determining LD50 by linear regression.

E. coli 055:B5 endotoxin = experiment: Chromogenic Limulus amoebocyte lysate test, neutralization of endotoxin in vitro; type: biochemical; conditions: 0.01 ng of LPS mixed with 5×10^−6M peptide
Description: (§1) LPS derived from P. aeruginosa and E. coli 0111:B4 or 055:B5 was purchased from List Biological Laboratories (Campbell, Calif.) and stored at 4° C. until use. A commercially available chromogenic Limulus amoebocyte lysate test (Whittaker, Walkersville, Md.) was used to measure endotoxin levels in all solutions and serum samples. Endotoxin levels in peptide solutions were determined to be less than about 0.1 ng/ml. The capacity of BG22, βpep-3 and BG16 to neutralize E. coli 055:B5 endotoxin in vitro was determined by mixing 0.01 ng of LPS with 5×10^−6M of each peptide and results were compared to that observed for 0.01 ng of LPS alone.

[1] = system: Pseudomonas aeruginosa LPS; experiment: Endotoxemia in vivo, serum endotoxin levels; set-up: unit not given here; conditions: iv 125 μg peptide preincubated with 2 μg LPS per mouse
Description: as §1
(§2) To study endotoxemia in a mammal, 500 μg of each peptide was added to 8 μg of Pseudomonas aeruginosa LPS in 2.0 ml of pyrogen-free phosphate buffered saline (PBS) ex vivo, and incubated for 30 minutes on a shaker at room temperature. Each mouse was injected via tail vein with 0.5 ml of the mixture (125 μg of BG22, BG16, or βpep-3 and 2 μg of LPS per mouse). Mice were euthanized at 30, 60, 90 and 120 minutes after injection and serum collected just prior to death was analyzed for endotoxin levels and TNF-α concentration.
All TNF-α and endotoxin measurements in duplicate or triplicate in each experiment. In vivo experiments were performed twice to confirm reproducibility. The results obtained were compared using the unpaired Student's t-test.

TNF-α = experiment: Endotoxemia in vivo, serum TNF-α levels; set-up: species or system mouse; conditions: 90 minutes post-challenge; compared to mice receiving LPS without peptide, p<0.05
Description: TNF-α concentrations were measured as described by Battafarano et al. (supra). Briefly, the TNF-α sensitive cell line WEHI was used in all assays of either RAW cell supernatant (in vitro) or serum (in vivo animal model). Concentrations were extrapolated from a standard curve based oil dilutions of purified TNF-α (Genzyme, Cambridge, Mass.), and all samples were examined in triplicate. Viability of the WEHI cells was assessed by measuring the extent of cellular crystal violet uptake by spectrophotometry at 590 nm. In this assay, absorbance was inversely correlated with cell death and lysis resulting from exposure of WEHI cells to TNF-α. The amount of TNF-α in each experimental sample was extrapolated from the standard curve.
as §2
All TNF-α and endotoxin measurements in duplicate or triplicate in each experiment. […]

[2] = system: endotoxin from E. coli 055:B5; experiment: Limulus amoebocyte lysate assay (E-TOXATE), endotoxin neutralization; type: biochemical; conditions: 5.0 × 10^−6 M Peptide; 0.02 U (0.2 pg) endotoxin from E. coli 055:B5; Table 4
Description: The peptides were tested for their ability to neutralize endotoxin. Quantitative endotoxin activities for these peptides were measured by Limulus amoebocyte lysate assay.
Limulus amoebocyte lysate assay: The ability of synthetic peptides to neutralize endotoxin was detected with the E-TOXATE kit manufactured by Sigma Chemicals (St. Louis, Mo.). […] Peptide or B/PI was incubated with LPS at room temperature for 5 min in 100 ul of a 1:2 dilution of pyrogen-free saline (pH 6.4). The reaction was started by addition of 100 ul of amoebocyte lysate and the final volume was 200 ul. Assuming a 10,000 molecular weight for LPS, the approximate molar ration of B/PI:LPS at neutralization was 3000 to 1.
The peptides were tested according to the method provided above. […] BG38L was used as a positive control in these experiments.

[3] = target: the molecule itself; experiment: PFG NMR self-diffusion; self-association
Description: (§3) Pulsed-Field Gradient (PFG) NMR Self-Diffusion Measurements of β-Peptide Series Peptides Pulsed-field gradient (PFG) NMR diffusion measurements (Gibbs, et al. *J. Magn. Reson* 93:395–402, 1991) were performed on βpep peptides to assess self-association properties. Pulsed field gradient (PFG) NMR self-diffusion measurements were made on a Bruker AMX-600 using a GRASP gradient unit. NMR spectra for measurement of diffusion coefficients, D, were acquired using a 5 mm triple-resonance probe equipped with an actively shielded z-gradient coil. […]
(§4) The Stokes-Einstein relationship $D = k_B T / 6\pi \eta R$ was used to relate D to the macro-molecular radius, R, which was considered to be proportional to the square root of the apparent molecular weight, Mapp^{1/2} (Cantor et al. 1980. *The behavior of biological macromolecules*. Biophysical Chemistry, part III. New York: W. H. Freeman. pp. 979–1039). […] Use of the Stokes-Einstein relationship is specifically derived for a hard sphere, and although the actual molecular shape of each peptide aggregate would affect the diffusion coefficient, the maximum change in the ratio $Daggregate/Dmonomer$ would be about 20% in case of an improbable linear peptide tetramer. $Mapp$ for peptides was calculated using D values of lysozyme, ribonuclease and ubiquitin as standards for monomers of known molecular weight.

[4] = target: the molecule itself; experiment: PFG NMR self-diffusion at 30 C, calibrated with lysozyme, ubiquitin and ribonuclease; self-association
Description: Reson* 93:395–402, 1991) were performed on βpep peptides to assess self-association properties. Pulsed field gradient (PFG) NMR self-diffusion measurements were made on a Bruker AMX-600 using a GRASP gradient unit. NMR spectra for measurement of diffusion coefficients, D, were acquired using a 5 mm triple-resonance probe equipped with an actively shielded z-gradient coil. […] The PFG longitudinal eddy-current delay pulse-sequence was used for all self-diffusion measurements which were performed in D_2O over the temperature range 275° K to 310° K Peptide concentrations ranged from 3 mg/mL to 10 mg/mL.
The Stokes-Einstein relationship $D = k_B T / 6\pi \eta R$ was used to relate D to the macro-molecular radius, R, which was considered to be proportional to the square root of the apparent molecular weight, Mapp^{1/2} (Cantor et al. 1980. *The behavior of biological macromolecules*. Biophysical Chemistry, part III. New York: W. H. Freeman. pp. 979–1039). Therefore, D is proportional to Mapp^{-1/2}. From these simple relationships, the ratio $Ddimer/Dmonomer$ was 0.71, which is very close to 0.72 theoretically predicted for a two sphere dimer (Wills, et al. *J. Phys. Chem.* 85: 3978–3984, 1981). Use of the Stokes-Einstein relationship is specifically derived for a hard sphere, and although the actual molecular shape of each peptide aggregate would affect the diffusion coefficient, the maximum change in the ratio $Daggregate/Dmonomer$ would be about 20% in case of an improbable linear peptide tetramer. $Mapp$ for peptides was calculated using D values of lysozyme, ribonuclease and ubiquitin as standards for monomers of known molecular weight.
The temperature dependence of diffusion coefficients is plotted in FIG. 4. […] Moreover, for βpep-5, βpep-8 and βpep-1, the temperature dependence was linear and followed the activation energy expected for the self-diffusion of water.

[5] = target: the molecule itself; experiment: PFG NMR self-diffusion, 10 C to 40 C; self-association
Description: as §3, §4

[6] = target: the molecule itself; experiment: PFG NMR self-diffusion at 2 C; self-association
Description: as §3, §4

[7] = target: the molecule itself; experiment: NMR solution structure; self-association
[8] = 30 minutes after LPS/Peptide injection
[9] = 60 minutes after LPS/Peptide injection
[10] = 90 minutes after LPS/Peptide injection
[11] = 120 minutes after LPS/Peptide injection

Molecule	% Neutralization of Endotoxin (E. coli 055:B5 endotoxin) [%]	endotoxemia in vivo, serum endotoxin levels [1, 8]	endotoxemia in vivo, serum endotoxin levels [1, 9]	endotoxemia in vivo, serum endotoxin levels [1, 10]	endotoxemia in vivo, serum endotoxin levels [1, 11]	average molecular weight (apparent, self-associated state) [4] [Da]	also measured
HIKELQVKWKAQKRFLKMSIIVKLNDGRELSLD [βpep-3]	81	11*	37*	63*	66*		LPS-induced TNF-α secretion (in words) (RAW 264.7 cells): significantly greater decrease in TNF-α secretion; Bactericidal Activity, % killing (P. aeruginosa): 24.9, n = 3%; serum TNF-α levels (in words) (TNF-α): decreased serum TNF-α levels; Endotoxin Neutralization, % neutralization [2]: 79.4, n = 10%
MNSQVCEKVTNSVSSKLQPYFQTLPVMTKI [BG16]	0	>10,000	2,394	5,599	>10,000		
NANIKISGKWKAQKRFLKMSGNFDLSI [BG22, a 27mer, BPI aa 82–108]	37	7*	28*	73*	47*		serum TNF-α levels (in words) (TNF-α): decreased serum TNF-α levels
B1						12800	ratio of average molecular weight to calculated monomer molecular weight [3]: 3.6
B2						9490	ratio of apparent molecular weight to calculated monomer molecular weight [5]: 2.4; ratio of apparent molecular weight to calculated monomer molecular weight [6]: 3.7
B3						13700	ratio of average molecular weight to calculated monomer molecular weight [3]: 3.6
B4							binding result [7]: binds

Source: US7030087B2, “Synthetic approach to designed chemical structures” (priority 1996, dated 2006)
